Results as given in patent publication US20250215029A1 (Recludix Pharma, Inc., priority 2022, published 2025).
Read-outs that look alike come from different tables or passages of the source.

Key:
pY705-STAT3 in PBMC = target: T1, pY705-STAT3 in PBMC (Homo sapiens, UniProt P40763); assay: MSD-pSTAT-PBMC Assay (pSTAT3, IL-6 stimulated); assay type: cell-based; details: PBMC, compound 3 hrs, then 10 ng/mL IL-6 for 10 min
T1 construct: Cryopreserved Peripheral Blood Mononuclear Cells (PBMC) are from AllCells; host or cells: cryopreserved PBMC
T1 sequence (P40763 whole entry): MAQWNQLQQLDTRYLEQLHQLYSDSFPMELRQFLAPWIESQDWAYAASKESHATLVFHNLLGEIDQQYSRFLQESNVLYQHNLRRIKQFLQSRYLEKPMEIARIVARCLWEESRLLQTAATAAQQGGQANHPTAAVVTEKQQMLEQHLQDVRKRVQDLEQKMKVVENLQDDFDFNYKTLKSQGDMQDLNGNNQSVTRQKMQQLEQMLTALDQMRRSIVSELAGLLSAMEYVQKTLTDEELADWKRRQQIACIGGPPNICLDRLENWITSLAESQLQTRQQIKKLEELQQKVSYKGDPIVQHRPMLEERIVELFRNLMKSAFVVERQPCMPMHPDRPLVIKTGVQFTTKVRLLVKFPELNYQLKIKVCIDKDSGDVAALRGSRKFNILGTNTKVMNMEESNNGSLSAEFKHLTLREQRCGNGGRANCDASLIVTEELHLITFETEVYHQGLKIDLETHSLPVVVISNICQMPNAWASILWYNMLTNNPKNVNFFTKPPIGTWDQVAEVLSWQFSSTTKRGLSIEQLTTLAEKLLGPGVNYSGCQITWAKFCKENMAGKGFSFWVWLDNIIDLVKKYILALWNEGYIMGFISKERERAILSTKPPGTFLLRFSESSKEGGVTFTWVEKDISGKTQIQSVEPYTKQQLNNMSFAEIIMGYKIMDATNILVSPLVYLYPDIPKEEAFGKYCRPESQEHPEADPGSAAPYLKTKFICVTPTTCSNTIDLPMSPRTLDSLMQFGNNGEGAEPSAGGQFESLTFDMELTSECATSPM
Summary of the method: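 Human PBMCs were pretreated with compound for 3 h, then stimulated with 10 ng/mL IL-6 for 10 min. Lysate pY705-STAT3 was measured by MSD sandwich immunoassay (anti-STAT3 capture) and corrected for unstimulated background. Signal was normalized to DMSO, and IC50 came from variable-slope regression.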

pY641-STAT6 in PBMC = target: T2, pY641-STAT6 in PBMC (Homo sapiens, UniProt P42226); assay: MSD-pSTAT-PBMC Assay (pSTAT6, IL-4 stimulated); assay type: cell-based; details: compound 3 hrs, then 1 ng/mL IL-4 for 10 min
T2 construct: Cryopreserved Peripheral Blood Mononuclear Cells (PBMC) are from AllCells; host or cells: cryopreserved PBMC
T2 sequence (P42226 1-847): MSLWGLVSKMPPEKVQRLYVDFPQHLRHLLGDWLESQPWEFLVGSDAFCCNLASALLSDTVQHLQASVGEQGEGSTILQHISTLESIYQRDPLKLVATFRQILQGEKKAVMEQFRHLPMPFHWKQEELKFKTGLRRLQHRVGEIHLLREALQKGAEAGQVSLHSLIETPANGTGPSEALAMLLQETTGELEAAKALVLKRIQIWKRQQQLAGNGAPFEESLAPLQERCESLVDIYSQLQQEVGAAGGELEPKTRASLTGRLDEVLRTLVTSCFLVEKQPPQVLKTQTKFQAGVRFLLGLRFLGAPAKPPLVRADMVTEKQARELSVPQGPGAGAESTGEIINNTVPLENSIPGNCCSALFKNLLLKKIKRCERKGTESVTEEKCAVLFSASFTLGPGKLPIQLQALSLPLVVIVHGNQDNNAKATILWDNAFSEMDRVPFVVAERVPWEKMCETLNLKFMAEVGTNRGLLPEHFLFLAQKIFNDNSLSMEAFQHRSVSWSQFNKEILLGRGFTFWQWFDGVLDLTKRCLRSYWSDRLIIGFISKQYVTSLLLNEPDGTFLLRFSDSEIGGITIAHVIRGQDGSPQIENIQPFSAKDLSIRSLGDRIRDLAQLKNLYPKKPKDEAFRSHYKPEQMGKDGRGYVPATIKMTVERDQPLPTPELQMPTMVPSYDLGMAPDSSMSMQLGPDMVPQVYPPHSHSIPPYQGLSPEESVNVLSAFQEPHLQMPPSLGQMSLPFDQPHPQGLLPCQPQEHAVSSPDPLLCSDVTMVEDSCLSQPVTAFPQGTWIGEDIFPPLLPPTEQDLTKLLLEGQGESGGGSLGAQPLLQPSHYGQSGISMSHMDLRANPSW
Summary of the method: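 Cells are preincubated with compound for 3 hrs, then stimulated for 10 min, IL-4 at 1 ng/mL driving STAT6 phosphorylation and IL-6 at 10 ng/mL driving STAT3. Phospho-STAT in lysates is quantified by MSD immunoassay, and IC50 is fitted after subtracting unstimulated wells.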

[1] = PBMC, Table 1114, read-out: pSTAT6
[2] = PBMC, Table 115, read-out: STAT6

Compound	IC50 (pY705-STAT3 in PBMC; Table 1114, read-out: pSTAT3)	IC50 (pY641-STAT6 in PBMC; [1])	IC50 (pY705-STAT3 in PBMC; Table 115, read-out: STAT3)	IC50 (pY641-STAT6 in PBMC; [2])	IC50 (pY641-STAT6 in PBMC; STAT6, PBMC, Table 115)
CC(C)CC(=O)SCCOP(=O)(OCCSC(=O)CC(C)C)C(F)(F)c1ccc2ccc(C(=O)N[C@H]3CCCC[C@H]4CC[C@@H](C(=O)N5C[C@@H](C#N)[C@H](c6cc[nH]c(=O)c6)C5)N4C3=O)cc2c1 (single isomer, unassigned) [Compound 168, S,S′-(((((7-(((3S,6S,10aS)-3-((3S,4R or 3R,4S)-3-cyano-4-(2-oxo-1,2-dihydropyridin-4-yl)pyrrolidine-1-carbonyl)-5-oxodecahydropyrrolo [1,2-a]azocin-6-yl)carbamoyl)naphthalen-2-yl)difluoromethyl)phosphoryl)bis(oxy))bis(ethane-2,1-diyl)) bis(3-methylbutane thioate)]	100 to 1000 nM	< 100 nM	–	–	–
CC(C)(C)C(=O)OCOP(=O)(OCOC(=O)C(C)(C)C)C(F)(F)c1ccc2sc(C(=O)N[C@H]3CCCC[C@H]4CCC[C@@H](C(=O)N5CC(n6ccnc6)C5)N4C3=O)cc2c1 [Compound 171, ((((2-(((4S,7S,11aS)-4-(3-(1H-imidazol-1-yl)azetidine-1-carbonyl)-6-oxodecahydro-2H-pyrido[1,2-a]azocin-7-yl)carbamoyl)benzo[b]thiophen-5-yl)difluoromethyl)phosphoryl)bis(oxy)) bis(methylene) bis(2,2-dimethylpropanoate)]	> 3000 nM	> 3000 nM	–	–	–
CC(C)CC(=O)SCCOP(=O)(OCCSC(=O)CC(C)C)[C@@H](F)c1ccc2sc(C(=O)N[C@H]3CCCC[C@H]4CC[C@@H](C(=O)N5C[C@@H](C#N)[C@H](c6cc[nH]c(=O)c6)C5)N4C3=O)cc2c1 (single isomer, unassigned) [Compound 1090]	–	–	1000 to 3000 nM	100 to 1000 nM	–
CCCOC(=O)[C@H](C)NP(=O)(Cc1ccc2ccc(C(=O)N[C@H]3CCCC[C@H]4CC[C@@H](C(=O)N5C[C@H](c6cc[nH]c(=O)c6)CC56CC6)N4C3=O)cc2c1)Oc1ccccc1 (stereo partly drawn) [Compound 402, propyl (((7-(((3S,6S,10aS)-5-oxo-3-((S)-6-(2-oxo-1,2-dihydropyridin-4-yl)-4-azaspiro[2.4]heptane-4-carbonyl)decahydropyrrolo[1,2-a]azocin-6-yl)carbamoyl)naphthalen-2-yl)methyl)(phenoxy)phosphoryl)-L-alaninate]	–	–	> 3000 nM	–	1000 to 3000 nM
CCCOC(=O)[C@H](C)NP(=O)(Oc1ccccc1)C(F)c1ccc2sc(C(=O)N[C@H]3CCC[C@H]4CC[C@@H](C(=O)N5CC(c6cccnc6)C5)N4C3=O)cc2c1 (stereo partly drawn) [Compound 415, propyl ((fluoro(2-(((3S,6S,9aS)-5-oxo-3-(3-(pyridin-3-yl)azetidine-1-carbonyl)octahydro-1H-pyrrolo[1,2-a]azepin-6-yl)carbamoyl)benzo [b]thiophen-5-yl)methyl)(phenoxy)phosphoryl)-L-alaninate]	–	–	< 100 nM	–	1000 to 3000 nM
CC(C)CC(=O)SCCOP(=O)(OCOC(=O)OC(C)C)C(F)(F)c1ccc2ccc(C(=O)N[C@H]3CCCC[C@H]4CC[C@@H](C(=O)N5C[C@H](c6cc[nH]c(=O)c6)[C@@H](C#N)C5)N4C3=O)cc2c1 (single isomer, unassigned) [Compound 1100]	–	–	100 to 1000 nM	< 100 nM	–
CN(C(=O)[C@@H]1CC[C@@H]2C/C=C\C[C@H](NC(=O)c3cc4cc(C(F)(F)P(=O)(OCOC(=O)C(C)(C)C)OCOC(=O)C(C)(C)C)ccc4[nH]3)C(=O)N21)c1ccccc1 [Compound 141, (((difluoro(2-(((3S,6S,10aR,Z)-3-(methyl (phenyl)carbamoyl)-5-oxo-1,2,3,5,6,7,10,10a-octahydropyrrolo [1,2-a]azocin-6-yl)carbamoyl)-1H-indol-5-yl)methyl)phosphoryl)bis (oxy))bis (methylene) bis(2,2-dimethylpropanoate)]	100 to 1000 nM	100 to 1000 nM	–	–	–
COCCC(=O)SCCOP(=O)(OCCSC(=O)CCOC)C(F)(F)c1ccc2sc(C(=O)N[C@H]3CCCC[C@H]4CC[C@@H](C(=O)N5C[C@@H](C#N)[C@H](c6cc[nH]c(=O)c6)C5)N4C3=O)cc2c1 (single isomer, unassigned) [Compound 1083]	–	–	1000 to 3000 nM	100 to 1000 nM	–
CCCOC(=O)[C@H](C)NP(=O)(Cc1ccc2ccc(C(=O)N[C@H]3CCCC[C@H]4CC[C@@H](C(=O)N5CC(c6ccccc6)CC56CC6)N4C3=O)cc2c1)Oc1ccccc1 (stereo partly drawn) [Compound 421, propyl (((7-(((3S,6S,10aS)-5-oxo-3-(6-phenyl-4-azaspiro[2.4]heptane-4-carbonyl)decahydropyrrolo[1,2-a]azocin-6-yl)carbamoyl)naphthalen-2-yl)methyl)(phenoxy)phosphoryl)-L-alaninate]	–	–	> 3000 nM	–	100 to 1000 nM

Continued, in another order:

IC50 (pY705-STAT3 in PBMC; Table 1114, read-out: pSTAT3)	IC50 (pY641-STAT6 in PBMC; [1])	IC50 (pY705-STAT3 in PBMC; Table 115, read-out: STAT3)	IC50 (pY641-STAT6 in PBMC; [2])	Compound	IC50 (pY641-STAT6 in PBMC; STAT6, PBMC, Table 115)
1000 to 3000 nM	100 to 1000 nM	–	–	CCCC(=O)SCCOP(=O)(OCCSC(=O)CCC)C(F)(F)c1ccc2sc(C(=O)N[C@H]3CCCC[C@H]4CC[C@@H](C(=O)N5C[C@@H](C#N)[C@H](c6ccccc6)C5)N4C3=O)cc2c1 (single isomer, unassigned) [Compound 152, S,S′-(((((2-(((3S,6S,10aS)-3-((3S,4R or 3R,4S)-3-cyano-4-phenylpyrrolidine-1-carbonyl)-5-oxodecahydro-pyrrolo[1,2-a]azocin-6-yl)carbamoyl)benzo[b]thiophen-5-yl)difluoromethyl)phosphoryl)bis(oxy))bis(ethane-2,1-diyl)) dibutanethioate]	–
–	–	< 100 nM	100 to 1000 nM	CC(C)C(=O)SCCOP(=O)(OCCSC(=O)C(C)C)C(F)(F)c1ccc2sc(C(=O)N[C@H]3CCC[C@H]4CC[C@@H](C(=O)N5CC(c6cccnc6)C5)N4C3=O)cc2c1 [Compound 1009, S,S′-((((difluoro(2-(((3S,6S,9aS)-5-oxo-3-(3-(pyridin-3-yl)azetidine-1-carbonyl)octahydro-1H-pyrrolo[1,2-a]azepin-6-yl)carbamoyl)benzo [b]thiophen-5-yl)methyl)phosphoryl)bis(oxy))bis(ethane-2,1-diyl)) bis(2-methyl-propanethioate)]	–
< 100 nM	> 3000 nM	–	–	CC(C)(C)C(=O)SCCOP(=O)(OCCSC(=O)C(C)(C)C)C(F)(F)c1ccc2sc(C(=O)N[C@H]3CC4(CC[C@H]5CC[C@@H](C(=O)N6CC(c7cccnc7)C6)N5C3=O)CC4)cc2c1 [Compound 130, S,S′-((((difluoro(2-(((3′S,6′S,10a′S)-5′-oxo-3′-(3-(pyridin-3-yl)azetidine-1-carbonyl)octahydro-5′H-spiro [cyclopropane-1,8′-pyrrolo[1,2-a]azocin]-6′-yl)carbamoyl)benzo[b]thiophen-5-yl)methyl)phosphoryl)bis (oxy))bis (ethane-2,1-diyl)) bis(2,2-dimethylpropane-thioate)]	–
–	–	< 100 nM	100 to 1000 nM	CC(C)(C)C(=O)SCCOP(=O)(OCCSC(=O)C(C)(C)C)C(F)(F)c1ccc2sc(C(=O)N[C@H]3CCC[C@H]4CC[C@@H](C(=O)N5CC(CS(C)(=O)=O)C5)N4C3=O)cc2c1 [Compound 1014, S,S′-((((difluoro(2-(((3S,6S,9aS)-3-(3-((methylsulfonyl)methyl)azetidine-1-carbonyl)-5-oxooctahydro-1H-pyrrolo[1,2-a]azepin-6-yl)carbamoyl)benzo [b]thiophen-5-yl)methyl)phosphoryl)bis(oxy))bis(ethane-2,1-diyl)) bis(2,2-dimethyl-propanethioate)]	–
